Results from patent publication US7892767B2, “Phosphospecific chemokine receptor antibodies” (Washington University in St. Louis, priority 2005, dated 2011).

Tests used:
[1] = system: cerebellar granule precursor cells (GPCs); test: Intracellular cAMP by ELISA, primary cerebellar granule precursor cells; format: cell-based, mouse; settings: 1 μg/ml CXCL12
Experimental: Primary granule neuron cultures. Primary cultures of purified GPCs were prepared from 6 day-old BALB/C mice as described (58). Cerebella were dissected and meninges were removed. After incubation with 0.1% trypsin (Sigma) in HBSS with 125 units/ml Dnase (Sigma), 0.5 mM EDTA for 20 minutes at 37° C., cells were pelleted and washed three times with HBSS. The final cell suspension was passed through a […] nylon mesh cell strainer (Falcon, Franklin Lakes, Mich.). Cells were diluted to 2×10^6 cells/ml in DMEM/F12 (Gibco BRL, Gaithersburg, Md.) supplemented with N2 (Gibco BRL), 20 mM KCl, and 36 mM glucose.
(§1) Growth factor and drug treatment. Following serum-starvation for 24 hours, astrocytes, granule cells, U87 cells and Daoy cells, were treated with 1 μg/ml CXCL12 (PeproTech), […] AMD3465 (kind gift from Simon Fricker, AnorMED, Langley, BC, Canada) (200 μM Rolipram (Sigma), or 10 μM Forskolin (Sigma) as indicated.
Determination of cAMP concentration. Competitive immunoassay for cAMP concentration was performed exactly as directed by the manufacturer. Absorbance at 405 nm was measured and cAMP concentrations were determined by calculation based on a standard curve. Protein concentrations were measured by colormetric assay (Bio-Rad, Hercules, Calif.) according to the manufacturer's directions. cAMP values were normalized to protein for each sample individually.

Nf1−/− astrocytes = test: Cell number by trypan blue exclusion, Nf1−/− astrocytes; format: cell-based, mouse; settings: CXCL12 0.1 ug/ml (≈10 nM), 24 hours, vs untreated controls
Experimental: Culture and treatment of primary astrocytes. Primary cultures of astrocytes were prepared from post-natal day two Nf1^flox/flox mice as previously described (134) and in accordance with established Animal Studies Protocols at Washington University School of Medicine. Cultures were infected with adenovirus containing either Cre recombinase (Nf1−/−) or LacZ (Nf1+/+). Primary cultures of astrocytes were grown under standard adherent conditions in serum free media (DMEM/F12 or Neurobasal (Gibco-BRL)) in the presence or absence of 0.1 μg/ml CXCL12 (Peprotech) and 10 μM Forskolin for 24 hours, as indicated. Cell number was determined after 24 hours by trypan blue exclusion and the growth effects of CXCL12 were derived as follows: ((cell number in the presence of CXCL12—cell number cell in the absence of CXCL12)/cell number in the absence of CXCL12)×100.)
To determine the biological significance of CXCR4 activation to NF1 glioma biology, we next sought to evaluate the regulation of CXCL12 growth effects by neurofibromin in astrocytes. While the true cell of origin of astrocytomas remains unknown, we utilized primary cultures of cortical astrocytes as a model of a normal counterpart to astrocytoma cells. Astrocytes were derived from Nf1^flox/flox mice and rendered Nf1+/+ or Nf1−/− by infection with adenovirus encoding LacZ or Cre recombinase, respectively.

astrocytes = test: Cell number by trypan blue exclusion, primary astrocytes; format: cell-based, mouse; settings: CXCL12 1 μg/ml, 24 hours
Experimental: Primary astrocyte cultures. Primary astrocytes were cultured from 1 to 3-day-old BALB/C mice as described (57). The cortices were triturated into single cells in minimal essential medium (Invitrogen) containing 10% FCS, and then plated onto 75 cm^2 T-flasks (0.5 hemisphere/flask) for 10-14 days. Astrocytes were prepared by vigorous shaking of T-flasks overnight, removal of non-adherent cells, and isolation of the remaining adherent cells, with 0.1% trypsin.
as §1

U87 glioblastoma cells = test: Viable cell number by trypan blue exclusion, U87 cells; format: cell-based, human; settings: CXCL12 1 μg/ml
Experimental: Brain tumor cell cultures. Cells were cultured in αMEM (Invitrogen, Carlsbad, Calif.) supplemented with 10% FCS (Biomedia, Foster City, Calif.) in the presence of penicillin streptomycin at 37° C. with 5% CO2.
as §1

CXCR4 = biological target: T1, CXCR4 (Mus musculus, UniProt P70658); test: CXCL12-induced CXCR4 phosphorylation (pCXCR4 western blot), Nf1−/− astrocytes; format: cell-based; settings: CXCL12 0.1 μg/ml, at 5 minutes
T1 construct: endogenous in cells; host or cells: primary mouse astrocytes (Nf1 flox/flox, infected with Ad-LacZ or Ad-Cre)
Experimental: Western Blot Analysis. Whole-cell extracts were obtained by lysing cells with lysis buffer (20 mM Tris pH 7.4, 137 mM NaCl, 10% Glycerol and 1% Triton-X-100) supplemented with phosphatase inhibitor cocktail set II (Calbiochem, La Jolla, Calif.), PMSF (1 mM), leupeptin, (0.005 mg/ml) and aprotinin (0.005 mg/ml). The proteins were resolved with 10% Bis-Tris gels (Invitrogen) and transferred onto the nitrocellulose membrane Hybond ECL (Amersham, Piscataway, N.J.) according to standard protocols. Membranes were incubated with polyclonal antibodies CXCR4 (1:500), pErk½ (1:1200), pan Erk½ (1:150), pAkt (1:500), pan Akt (1:1000), pGRK2 (1:250), and pCXCR4 (1:200) overnight at 4° C. This was followed by incubation with horseradish peroxidase-conjugated secondary antibody (1:15,000; Bio-Rad). Peroxide activity was detected using the enhanced chemiluminescence Supersignal West Dura system (Pierce, Rockford, Ill.) Mouse anti-actin antibody was used as a loading control. Quantitation of western blots was performed by densitometry using Image J software from the NIH.
Among the primary mechanisms for controlling GPCR effects on cAMP production is receptor desensitization (140). This process is initiated when ligand occupied GPCR (e.g., CXCR4) is phosphorylated by G protein receptor kinase (GRK). […]

[2] = system: PDE4A-expressing Daoy cells; test: Viable cell number, PDE4A-expressing Daoy cells; format: cell-based, human; settings: CXCL12 1 μg/ml, AMD 3465 2.5 μg/ml, Rolipram 200 μM
Experimental: (§2) PDE4A expression. U87 and Daoy cells (15,000 cells) were transiently transfected for 48 h with a plasmid encoding a transgene for the tet-off transactivator (tTA) alone (kind gift from Dr. Louis Muglia, Washington University School of Medicine, St. Louis, Mo.), a plasmid containing a transgene for tet-off regulated expression of phosphodiesterase 4A (PDE4A) alone (kind gift from Dr. James Cherry, Boston University, Boston, Mass.), or a combination of both plasmids, using lipofectamine (Invitrogen) according to the manufacturer's instructions. Plasmid DNA (2 μg) was mixed with lipofectamine (5 μl) per 35 mm^2 dish. Transfection proceeded for 9 hours prior to exchanging transfection media for αMEM supplemented with 10% FCS.

[3] = system: PDE4A-expressing U87 cells; test: Viable cell number, PDE4A-expressing U87 cells; format: cell-based, human; settings: CXCL12 1 μg/ml, AMD 3465 2.5 μg/ml, Rolipram 200 μM
Experimental: as §2

T1 sequence (P70658 whole entry): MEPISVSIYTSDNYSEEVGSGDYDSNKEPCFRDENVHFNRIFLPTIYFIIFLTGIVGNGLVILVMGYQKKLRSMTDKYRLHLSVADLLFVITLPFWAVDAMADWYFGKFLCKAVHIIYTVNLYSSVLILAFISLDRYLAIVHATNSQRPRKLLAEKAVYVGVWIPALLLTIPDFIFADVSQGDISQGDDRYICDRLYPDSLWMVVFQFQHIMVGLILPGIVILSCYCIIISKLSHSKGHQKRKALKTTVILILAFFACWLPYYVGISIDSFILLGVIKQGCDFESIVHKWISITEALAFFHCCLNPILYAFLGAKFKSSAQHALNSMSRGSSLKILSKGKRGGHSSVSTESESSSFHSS

CXCL12: chemokine ligand of CXCR4 (Peprotech)
change in cAMP levels [1]: little to no change
increase in cell number (Nf1−/− astrocytes): ~14+/−2%
effect on cell number (astrocytes): tended to decrease
increase in cell number (U87 glioblastoma cells): greater than 2 fold
increase in cell number (U87 glioblastoma cells; serum-free): greater than 200%
decrease in pCXCR4 (CXCR4): 0.56+/−0.14 fold
effect on cell number [2]: no longer any benefit
effect on cell number [3]: no longer any benefit
